Experimental data as given in patent US6777413B2, “2-[1H]-quinolone and 2-[1H]-quinoxalone inhibitors of factor Xa” (Millennium Pharmaceuticals, Inc., priority 2000, dated 2004).

What follows are compounds tested against factor Xa (Homo sapiens, UniProt P00742) (assay: factor Xa amidolytic assay (XA)). Details: not given.
Chain of factor Xa (P00742 235-488 limits assumed): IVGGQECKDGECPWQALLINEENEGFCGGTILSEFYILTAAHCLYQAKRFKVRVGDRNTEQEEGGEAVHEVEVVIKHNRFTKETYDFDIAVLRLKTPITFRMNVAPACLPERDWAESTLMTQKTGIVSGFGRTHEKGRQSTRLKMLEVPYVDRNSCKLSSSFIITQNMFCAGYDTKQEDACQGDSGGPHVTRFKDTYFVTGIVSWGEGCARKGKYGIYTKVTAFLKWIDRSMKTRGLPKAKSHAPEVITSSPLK
Chain of factor Xa (P00742 41-179 limits assumed): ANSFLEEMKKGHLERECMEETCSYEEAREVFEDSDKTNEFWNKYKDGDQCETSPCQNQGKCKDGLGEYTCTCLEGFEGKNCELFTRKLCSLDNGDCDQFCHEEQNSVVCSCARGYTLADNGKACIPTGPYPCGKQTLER

SMILES	IC50
N=C(N)c1ccc2ccc(Cn3c(=O)ccc4cc(OC5CCNCC5)ccc43)cc2c1 [Example 1]	0.151 µM
CC(=N)N1CCC(Oc2ccc3c(ccc(=O)n3Cc3cccc(-c4cccc(C(=N)N)c4)c3)c2)CC1 [Example 4]	0.0118 µM
N=C(N)c1cccc(-c2cccc(Cn3c(=O)ccc4cc(OC5CCNCC5)ccc43)c2)c1 [Example 5]	1.57 µM
N=C(N)c1cccc(-c2ccc(Cn3c(=O)ccc4cc(OC5CCNCC5)ccc43)cc2)c1 [Example 6]	4.94 µM
CC(=N)N1CCC(Oc2ccc3c(ccc(=O)n3Cc3ccc(-c4cccc(C(=N)N)c4)cc3)c2)CC1 [Example 7]	0.0823 µM
N=C(N)c1ccc(-c2ccccc2Cn2c(=O)ccc3cc(OC4CCNCC4)ccc32)cc1 [Example 8]	501 µM
CC(=N)N1CCC(Oc2ccc3c(ccc(=O)n3Cc3ccccc3-c3cccc(C(=N)N)c3)c2)CC1 [Example 9]	2.55 µM
CC(=N)N1CCC(Oc2ccc3c(ccc(=O)n3Cc3ccccc3-c3ccc(C(=N)N)cc3)c2)CC1 [Example 10]	137 µM
N=C(N)c1cccc(-c2ccccc2Cn2c(=O)ccc3cc(OC4CCNCC4)ccc32)c1 [Example 11]	41.9 µM
N=C(N)c1ccc(-c2ccc(Cn3c(=O)ccc4cc(OC5CCNCC5)ccc43)cc2)cc1 [Example 12]	70 µM
CC(=N)N1CCC(Oc2ccc3c(ccc(=O)n3Cc3ccc(-c4ccc(C(=N)N)cc4)cc3)c2)CC1 [Example 13]	50 µM
CCn1c(Cn2c(=O)ccc3cc(OC4CCN(C(C)=N)CC4)ccc32)cc2ccc(C(=N)N)cc21 [Example 14]	0.00474 µM
CC(=N)N1CCC(Oc2ccc3c(ccc(=O)n3Cc3cccc(-c4ccc(C(=N)N)cc4)c3)c2)CC1 [Example 15]	18.8 µM
CN1CCC(Oc2ccc3c(ccc(=O)n3Cc3ccc4ccc(C(=N)N)cc4c3)c2)CC1 [Example 16]	0.209 µM
CCn1c(Cn2c(=O)ccc3cc(OC4CCN(C(C)=N)CC4)ccc32)cc2ccc(C(=N)NN)cc21 [Example 17]	0.514 µM
N=C(N)c1ccc2ccc(Cn3c(=O)ccc4cc(OC5CCN(c6ncccn6)CC5)ccc43)cc2c1 [Example 18]	0.58 µM

These compounds were tested against thrombin (Homo sapiens, UniProt P00734) (assay: thrombin amidolytic assay (IIA)). Details: not given.

SMILES	IC50
N=C(N)c1ccc2ccc(Cn3c(=O)ccc4cc(OC5CCNCC5)ccc43)cc2c1 [Example 1]	122 µM
CC(=N)N1CCC(Oc2ccc3c(ccc(=O)n3Cc3cccc(-c4cccc(C(=N)N)c4)c3)c2)CC1 [Example 4]	4.56 µM
N=C(N)c1cccc(-c2cccc(Cn3c(=O)ccc4cc(OC5CCNCC5)ccc43)c2)c1 [Example 5]	6.59 µM
N=C(N)c1cccc(-c2ccc(Cn3c(=O)ccc4cc(OC5CCNCC5)ccc43)cc2)c1 [Example 6]	58.8 µM
CC(=N)N1CCC(Oc2ccc3c(ccc(=O)n3Cc3ccc(-c4cccc(C(=N)N)c4)cc3)c2)CC1 [Example 7]	45 µM
N=C(N)c1ccc(-c2ccccc2Cn2c(=O)ccc3cc(OC4CCNCC4)ccc32)cc1 [Example 8]	1.7 µM
CC(=N)N1CCC(Oc2ccc3c(ccc(=O)n3Cc3ccccc3-c3ccc(C(=N)N)cc3)c2)CC1 [Example 10]	0.995 µM
N=C(N)c1cccc(-c2ccccc2Cn2c(=O)ccc3cc(OC4CCNCC4)ccc32)c1 [Example 11]	2.48 µM
N=C(N)c1ccc(-c2ccc(Cn3c(=O)ccc4cc(OC5CCNCC5)ccc43)cc2)cc1 [Example 12]	9.13 µM
CC(=N)N1CCC(Oc2ccc3c(ccc(=O)n3Cc3ccc(-c4ccc(C(=N)N)cc4)cc3)c2)CC1 [Example 13]	3 µM
CCn1c(Cn2c(=O)ccc3cc(OC4CCN(C(C)=N)CC4)ccc32)cc2ccc(C(=N)N)cc21 [Example 14]	0.0693 µM
CC(=N)N1CCC(Oc2ccc3c(ccc(=O)n3Cc3cccc(-c4ccc(C(=N)N)cc4)c3)c2)CC1 [Example 15]	30.4 µM
CN1CCC(Oc2ccc3c(ccc(=O)n3Cc3ccc4ccc(C(=N)N)cc4c3)c2)CC1 [Example 16]	399 µM
CCn1c(Cn2c(=O)ccc3cc(OC4CCN(C(C)=N)CC4)ccc32)cc2ccc(C(=N)NN)cc21 [Example 17]	11 µM
N=C(N)c1ccc2ccc(Cn3c(=O)ccc4cc(OC5CCN(c6ncccn6)CC5)ccc43)cc2c1 [Example 18]	75 µM

Each compound was assayed against prothrombinase complex (Homo sapiens, UniProt P00742) (assay: prothrombinase inhibition assay (IIASE)). Details: plasma free system, Chromozym TH.
Assay type: biochemical
Procedure: The prothrombinase inhibition assay is performed in a plasma free system with modifications to the method described by Sinha, U. et al., Thromb. […] Specifically, the activity of the prothrombinase complex is determined by measuring the time course of thrombin generation using the p-nitroanilide substrate Chromozym TH. […] Aliquots from the complex-inhibitor mixture are added to prothrombin (1 nM) and Chromozym TH (0.1 mM). […] Eight different concentrations of inhibitor are assayed in duplicate. A standard curve of thrombin generation by an equivalent amount of untreated complex is used for determination of percent inhibition.

Chain of prothrombinase complex (P00742 235-488 limits assumed): as the sequence (P00742 235-488 limits assumed) above
Chain of prothrombinase complex (P00742 41-179 limits assumed): as the sequence (P00742 41-179 limits assumed) above
Chain of prothrombinase complex (P12259 29-737 partner limits assumed): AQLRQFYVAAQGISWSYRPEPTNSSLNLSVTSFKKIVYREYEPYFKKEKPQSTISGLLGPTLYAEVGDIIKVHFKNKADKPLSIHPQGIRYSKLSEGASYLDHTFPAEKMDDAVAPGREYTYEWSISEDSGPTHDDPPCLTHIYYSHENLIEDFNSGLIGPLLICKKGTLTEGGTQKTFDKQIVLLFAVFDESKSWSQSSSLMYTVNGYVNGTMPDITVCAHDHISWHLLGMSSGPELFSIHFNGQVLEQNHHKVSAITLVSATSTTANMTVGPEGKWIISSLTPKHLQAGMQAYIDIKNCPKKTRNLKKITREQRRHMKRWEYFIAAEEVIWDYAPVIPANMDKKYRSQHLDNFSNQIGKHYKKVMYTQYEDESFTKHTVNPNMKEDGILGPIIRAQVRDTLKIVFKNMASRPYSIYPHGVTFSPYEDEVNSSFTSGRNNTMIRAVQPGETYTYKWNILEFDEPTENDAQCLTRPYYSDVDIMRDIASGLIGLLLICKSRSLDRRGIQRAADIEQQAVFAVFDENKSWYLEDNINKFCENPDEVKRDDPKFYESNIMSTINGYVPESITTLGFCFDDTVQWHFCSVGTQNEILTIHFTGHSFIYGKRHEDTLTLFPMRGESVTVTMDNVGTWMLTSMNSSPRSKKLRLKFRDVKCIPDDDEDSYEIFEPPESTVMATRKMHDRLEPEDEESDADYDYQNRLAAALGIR
Chain of prothrombinase complex (P12259 1574-2224 partner limits assumed): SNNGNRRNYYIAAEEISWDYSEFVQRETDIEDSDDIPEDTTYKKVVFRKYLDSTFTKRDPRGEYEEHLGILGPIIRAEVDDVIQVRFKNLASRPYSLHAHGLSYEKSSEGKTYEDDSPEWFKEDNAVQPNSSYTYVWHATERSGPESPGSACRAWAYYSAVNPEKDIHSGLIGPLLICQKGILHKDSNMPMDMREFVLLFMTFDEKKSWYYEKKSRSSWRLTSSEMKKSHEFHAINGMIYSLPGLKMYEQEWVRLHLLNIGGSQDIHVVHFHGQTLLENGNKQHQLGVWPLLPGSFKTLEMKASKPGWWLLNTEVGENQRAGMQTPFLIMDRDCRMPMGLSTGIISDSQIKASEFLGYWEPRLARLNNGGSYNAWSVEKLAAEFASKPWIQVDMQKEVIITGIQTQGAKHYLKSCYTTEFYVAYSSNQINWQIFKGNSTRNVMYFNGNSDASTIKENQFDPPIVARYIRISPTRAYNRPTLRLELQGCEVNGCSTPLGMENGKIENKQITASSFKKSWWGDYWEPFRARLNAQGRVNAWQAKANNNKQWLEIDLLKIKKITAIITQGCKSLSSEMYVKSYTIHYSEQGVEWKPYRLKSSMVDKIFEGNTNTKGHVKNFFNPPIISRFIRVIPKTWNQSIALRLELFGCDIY

SMILES	IC50
N=C(N)c1ccc2ccc(Cn3c(=O)ccc4cc(OC5CCNCC5)ccc43)cc2c1 [Example 1]	9.11 µM
CC(=N)N1CCC(Oc2ccc3c(ccc(=O)n3Cc3cccc(-c4cccc(C(=N)N)c4)c3)c2)CC1 [Example 4]	0.157 µM
N=C(N)c1cccc(-c2cccc(Cn3c(=O)ccc4cc(OC5CCNCC5)ccc43)c2)c1 [Example 5]	46.3 µM
N=C(N)c1cccc(-c2ccc(Cn3c(=O)ccc4cc(OC5CCNCC5)ccc43)cc2)c1 [Example 6]	38.2 µM
CC(=N)N1CCC(Oc2ccc3c(ccc(=O)n3Cc3ccc(-c4cccc(C(=N)N)c4)cc3)c2)CC1 [Example 7]	0.362 µM
N=C(N)c1ccc(-c2ccccc2Cn2c(=O)ccc3cc(OC4CCNCC4)ccc32)cc1 [Example 8]	1.92 µM
CC(=N)N1CCC(Oc2ccc3c(ccc(=O)n3Cc3ccccc3-c3cccc(C(=N)N)c3)c2)CC1 [Example 9]	0.697 µM
CC(=N)N1CCC(Oc2ccc3c(ccc(=O)n3Cc3ccccc3-c3ccc(C(=N)N)cc3)c2)CC1 [Example 10]	1.2 µM
N=C(N)c1cccc(-c2ccccc2Cn2c(=O)ccc3cc(OC4CCNCC4)ccc32)c1 [Example 11]	2.18 µM
N=C(N)c1ccc(-c2ccc(Cn3c(=O)ccc4cc(OC5CCNCC5)ccc43)cc2)cc1 [Example 12]	15.5 µM
CC(=N)N1CCC(Oc2ccc3c(ccc(=O)n3Cc3ccc(-c4ccc(C(=N)N)cc4)cc3)c2)CC1 [Example 13]	8.63 µM
CCn1c(Cn2c(=O)ccc3cc(OC4CCN(C(C)=N)CC4)ccc32)cc2ccc(C(=N)N)cc21 [Example 14]	0.0143 µM
CC(=N)N1CCC(Oc2ccc3c(ccc(=O)n3Cc3cccc(-c4ccc(C(=N)N)cc4)c3)c2)CC1 [Example 15]	33.5 µM
CN1CCC(Oc2ccc3c(ccc(=O)n3Cc3ccc4ccc(C(=N)N)cc4c3)c2)CC1 [Example 16]	2.58 µM
CCn1c(Cn2c(=O)ccc3cc(OC4CCN(C(C)=N)CC4)ccc32)cc2ccc(C(=N)NN)cc21 [Example 17]	1.21 µM
N=C(N)c1ccc2ccc(Cn3c(=O)ccc4cc(OC5CCN(c6ncccn6)CC5)ccc43)cc2c1 [Example 18]	3.25 µM

These compounds were tested against T1, TRYPSIN (Bos taurus, UniProt P00760) (assay: trypsin protease inhibition). Details: not given.
T1 construct: gene PRSS1
T1 sequence (P00760 24-246): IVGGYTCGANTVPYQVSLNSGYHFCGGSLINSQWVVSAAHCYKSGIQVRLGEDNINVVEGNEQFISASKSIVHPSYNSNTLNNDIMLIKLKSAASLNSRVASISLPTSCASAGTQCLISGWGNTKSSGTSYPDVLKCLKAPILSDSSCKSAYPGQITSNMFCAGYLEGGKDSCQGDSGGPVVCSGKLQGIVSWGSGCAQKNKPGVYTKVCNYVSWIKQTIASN
Assay type: biochemical

SMILES	IC50
N=C(N)c1ccc2ccc(Cn3c(=O)ccc4cc(OC5CCNCC5)ccc43)cc2c1 [Example 1]	0.0772 µM
CC(=N)N1CCC(Oc2ccc3c(ccc(=O)n3Cc3cccc(-c4cccc(C(=N)N)c4)c3)c2)CC1 [Example 4]	0.0477 µM
N=C(N)c1cccc(-c2cccc(Cn3c(=O)ccc4cc(OC5CCNCC5)ccc43)c2)c1 [Example 5]	0.263 µM
N=C(N)c1cccc(-c2ccc(Cn3c(=O)ccc4cc(OC5CCNCC5)ccc43)cc2)c1 [Example 6]	3.63 µM
CC(=N)N1CCC(Oc2ccc3c(ccc(=O)n3Cc3ccc(-c4cccc(C(=N)N)c4)cc3)c2)CC1 [Example 7]	4.29 µM
N=C(N)c1ccc(-c2ccccc2Cn2c(=O)ccc3cc(OC4CCNCC4)ccc32)cc1 [Example 8]	56.6 µM
CC(=N)N1CCC(Oc2ccc3c(ccc(=O)n3Cc3ccccc3-c3cccc(C(=N)N)c3)c2)CC1 [Example 9]	0.847 µM
CC(=N)N1CCC(Oc2ccc3c(ccc(=O)n3Cc3ccccc3-c3ccc(C(=N)N)cc3)c2)CC1 [Example 10]	52.5 µM
N=C(N)c1cccc(-c2ccccc2Cn2c(=O)ccc3cc(OC4CCNCC4)ccc32)c1 [Example 11]	0.289 µM
N=C(N)c1ccc(-c2ccc(Cn3c(=O)ccc4cc(OC5CCNCC5)ccc43)cc2)cc1 [Example 12]	4.41 µM
CC(=N)N1CCC(Oc2ccc3c(ccc(=O)n3Cc3ccc(-c4ccc(C(=N)N)cc4)cc3)c2)CC1 [Example 13]	1.91 µM
CCn1c(Cn2c(=O)ccc3cc(OC4CCN(C(C)=N)CC4)ccc32)cc2ccc(C(=N)N)cc21 [Example 14]	0.0104 µM
CC(=N)N1CCC(Oc2ccc3c(ccc(=O)n3Cc3cccc(-c4ccc(C(=N)N)cc4)c3)c2)CC1 [Example 15]	3.37 µM
CN1CCC(Oc2ccc3c(ccc(=O)n3Cc3ccc4ccc(C(=N)N)cc4c3)c2)CC1 [Example 16]	0.315 µM
CCn1c(Cn2c(=O)ccc3cc(OC4CCN(C(C)=N)CC4)ccc32)cc2ccc(C(=N)NN)cc21 [Example 17]	0.832 µM
N=C(N)c1ccc2ccc(Cn3c(=O)ccc4cc(OC5CCN(c6ncccn6)CC5)ccc43)cc2c1 [Example 18]	0.656 µM
